Patent publication US10640520B2, “Boronic acid derivatives” (MERCK PATENT GMBH, priority 2014, dated 2020)

Columns and labels:
[1] = target: LMP7 subunit of the immunoproteasome (Homo sapiens, UniProt P20618+P28062); details: Singh et al., Br. J. Hematology 152(2): 155-163; cited from earlier work
LMP7 = LMP7 (Homo sapiens, UniProt P20618+P28062); assay: Determination of LMP7 activity (fluorescence intensity assay, Suc-LLVY-AMC); type: biochemical; details: purified human immunoproteasome, incubation for 20 minutes
Procedure: Determination of LMP7 Activity:
Measurement of LMP7 inhibition is performed in 384 well format based on fluorescence intensity assay.
(§1) Purified human immunoproteasome (0.25 nM) and serial diluted compounds in DMSO (range of concentrations from 30 μM to 15 pM) or controls are incubated for 20 minutes or 120 minutes (long incubation) at 25° C. in assay buffer containing 50 mM Tris pH 7.4, 0.03% SDS, 1 mM EDTA and 1% DMSO. The reaction is initiated by the addition of the fluorogenic peptide substrate, Suc-LLVY-AMC (Bachem 1-1395), at a concentration of 40 μM. After 60 minutes of incubation at 37° C., fluorescence intensity is measured at λex=350 nm and λem=450 nm with a fluorescence reader (Perkin Elmer Envision reader or equivalent).
(§2) Unless indicated otherwise the results are obtained after incubation for 20 minutes.

Beta5 = Beta5 (Homo sapiens, UniProt P20618+P28074); assay: Determination of Beta5 activity (fluorescence intensity assay, Suc-LLVY-AMC); type: biochemical; details: incubation for 20 minutes; for IC50: purified human constitutive proteasome
Procedure: Determination of Beta5 Activity:
Measurement of Beta5 inhibition is performed in 384 well format based on fluorescence intensity assay.
as §1, with “constitutive proteasome (1.25” for “immunoproteasome (0.25”, “[…])” for “pM)”
as §2

Compound | IC50 (LMP7) | Selectivity LMP7 vs Beta5 (Beta5) | IC50 (Beta5) | selectivity for the LMP7 subunit of the immunoproteasome [1]
CC1=C(C(=O)N[C@H](C)C(=O)N[C@@H](Cc2c[nH]c3ccccc23)C(=O)N[C@@H](Cc2ccccc2)C(=O)[C@@]2(C)CO2)Cc2ccccc21 [PR-924] | – | – | – | 100 fold
O=C(CCN1CCCCS1(=O)=O)N[C@@H](Cc1coc2ccccc12)B(O)O [Compound 26, [(1R)-2-(benzofuran-3-yl)-1-[3-(1,1-dioxothiazinan-2-yl)propanoylamino]ethyl]boronic acid] | < 50 nM | +++ (30 ≤ Selectivity < 50) | 50 to 500 nM | –
O=C(CCN1CC(c2ccccc2)OC1=O)N[C@@H](Cc1coc2ccccc12)B(O)O (stereo partly drawn) [Compound 29, [(1R)-2-(benzofuran-3-yl)-1-[3-(2-oxo-5-phenyl-oxazolidin-3-yl)propanoylamino]ethyl]boronic acid] | < 50 nM | ++ (10 ≤ Selectivity < 30) | < 50 nM | –
Cc1ccc(C[C@H](NC(=O)CCN2CCCCS2(=O)=O)B(O)O)cc1 [Compound 22, [(1R)-1-[3-(1,1-dioxothiazinan-2-yl)propanoylamino]-2-(p-tolyl)ethyl]-boronic acid] | < 50 nM | ++ (10 ≤ Selectivity < 30) | 50 to 500 nM | –
CCc1cccc(C[C@H](NC(=O)CCCN2CCOC2=O)B(O)O)c1 [Compound 1, [(1R)-2-(3-ethylphenyl)-1-[4-(2-oxooxazolidin-3-yl)butanoylamino]-ethyl]boronic acid] | 50 to 500 nM | ++ (10 ≤ Selectivity < 30) | > 5000 nM | –
Cc1ccc(C[C@H](NC(=O)CCN2CCCCC2=O)B(O)O)cc1 [Compound 9, [(1R)-1-[3-(2-oxo-1-piperidyl)propanoylamino]-2-(p-tolyl)ethyl]boronic acid] | < 50 nM | ++ (10 ≤ Selectivity < 30) | 500 to 5000 nM | –
CCN1CCN(CCC(=O)N[C@@H](Cc2coc3ccccc23)B(O)O)C(=O)C1=O [Compound 34, [(1R)-2-(benzofuran-3-yl)-1-[3-(4-ethyl-2,3-dioxo-piperazin-1-yl)propanoylamino]ethyl]boronic acid] | < 50 nM | ++ (10 ≤ Selectivity < 30) | 50 to 500 nM | –

Further lines, with some results ahead:

IC50 (LMP7) | Selectivity LMP7 vs Beta5 (Beta5) | IC50 (Beta5) | Compound | selectivity for the LMP7 subunit of the immunoproteasome [1]
50 to 500 nM | +++ (30 ≤ Selectivity < 50) | 500 to 5000 nM | Cc1ccc(C[C@H](NC(=O)C2CCC(=O)N2c2ccccc2)B(O)O)c(C)c1 (stereo partly drawn) [Compound 36, [(1R)-2-(2,4-dimethylphenyl)-1-[(5-oxo-1-phenyl-pyrrolidine-2-carbonyl)amino]-ethyl]boronic acid] | –
< 50 nM | +++++ (Selectivity ≥ 70) | 500 to 5000 nM | Cc1ccc(C[C@H](NC(=O)CCN2CCCCC2=O)B(O)O)c(C)c1 [Compound 31, [(1R)-2-(2,4-dimethylphenyl)-1-[3-(2-oxo-1-piperidyl)propanoylamino]-ethyl]boronic acid] | –
< 50 nM | +++++ (Selectivity ≥ 70) | 500 to 5000 nM | Cc1ccc(C[C@H](NC(=O)CCN2CCCCC2=O)B(O)O)cc1C [Compound 25, [(1R)-2-(3,4-dimethylphenyl)-1-[3-(2-oxo-1-piperidyl)propanoylamino]-ethyl]boronic acid] | –
< 50 nM | +++++ (Selectivity ≥ 70) | 500 to 5000 nM | CC1(C)CCC(=O)N1CCC(=O)N[C@@H](Cc1coc2ccccc12)B(O)O [Compound 27, [(1R)-2-(benzofuran-3-yl)-1-[3-(2,2-dimethyl-5-oxo-pyrrolidin-1-yl)propanoylamino]ethyl]boronic acid] | –
< 50 nM | ++ (10 ≤ Selectivity < 30) | 50 to 500 nM | O=C(CCN1CCCCC1=O)N[C@@H](Cc1ccc2ccccc2c1)B(O)O [Compound 7, [(1R)-2-(2-naphthyl)-1-[3-(2-oxo-1-piperidyl)propanoylamino]ethyl]-boronic acid] | –
< 50 nM | ++ (10 ≤ Selectivity < 30) | 50 to 500 nM | Cc1ccc(C[C@H](NC(=O)CCN2CCCC2=O)B(O)O)cc1 [Compound 4, [(1R)-1-[3-(2-oxopyrrolidin-1-yl)propanoylamino]-2-(p-tolyl)ethyl]-boronic acid] | –
50 to 500 nM | ++ (10 ≤ Selectivity < 30) | 500 to 5000 nM | O=C(CCN1CCCC1=O)N[C@@H](Cc1cccc2ccccc12)B(O)O [Compound 10, [(1R)-2-(1-naphthyl)-1-[3-(2-oxopyrrolidin-1-yl)propanoylamino]ethyl]-boronic acid] | –
50 to 500 nM | ++ (10 ≤ Selectivity < 30) | 500 to 5000 nM | O=C(CCN1CCCCCC1=O)N[C@@H](Cc1ccccc1)B(O)O [Compound 13, [(1R)-1-[3-(2-oxoazepan-1-yl)propanoylamino]-2-phenyl-ethyl]boronic acid] | –
